Test results: PMC3845832 (Clinical cancer research : an official journal of the …, 2013)
Where two headings read alike, the source gives them in different places. Values belong to the molecule of their own block, whether it stands above or below them.

Tests used:
[1] = Dinaciclib clearance pathways; settings: unpublished data
CLL patients [2] = settings: cited from earlier work
refractory CLL patients = settings: pharmacokinetically guided dosing, cited from earlier work
CLL patients [3] = settings: human, in vivo
clinical = settings: human, in vivo
CLL patients [4] = experiment: Tumor lysis syndrome; assay type: in vivo, human
CLL patients [5] = experiment: Population PK-PD logistic regression model of TLS probability in Cycle 1; settings: linear function, day 1 or 8; p<0.01 for significance
UGT1A1 or UGT1A4 = settings: in vitro; cited from earlier work
UGT1A9 = settings: in vitro; cited from earlier work

- Role of glucuronidation in clearance [1]: clearly important
Molecule: CCc1cnn2c(NCc3ccc[n+]([O-])c3)cc(N3CCCC[C@H]3CCO)nc12 [dinaciclib]
- TLS in treated CLL patients (CLL patients [2]): observed

- Exposure (Cmax or AUC) as predictor of TLS in the model (CLL patients [3]): did not improve the model
- Lower CL in females compared to males (clinical; both): 12.3%
- Vd (clinical): 75.8 L
- clearance (clinical; iv): 568 mL/min
- Patients who had TLS in the first cycle (CLL patients [4]; 111 patients of phase I and II studies): 43%
- Number of patients having TLS (CLL patients [4]; Day 1, Cycle 1): 25
Molecule: CN1CC[C@H](c2c(O)cc(O)c3c(=O)cc(-c4ccccc4Cl)oc23)[C@H](O)C1 [flavopiridol]
- Patients achieving objective responses (refractory CLL patients; phase I trial): 40%
- Patients achieving objective responses (refractory CLL patients; phase II trial): 53%
- Patients in whom TLS (dose-limiting toxicity) was observed (CLL patients [2]; two trials, pharmacokinetically guided dosing regimen): 53 out of 116

Molecule: flavopiridol glucuronide [flavo-G]
- Exposure (Cmax or AUC) as predictor of TLS in the model (CLL patients [5]): significant decrease in OFV
- AUC, median value (clinical): 13600 ng·h/mL
- AUC, range (clinical): 3210 to 141000 ng·h/mL

Molecule: CN1CCC(c2c(O)cc(O[C@@H]3O[C@H](C(=O)O)[C@@H](O)[C@H](O)[C@H]3O)c3c(=O)cc(-c4ccccc4Cl)oc23)C(O)C1 (stereo partly drawn) [Flavo-5-G, 5-O-β-glucopyranuronosyl-flavopiridol]
- Share of glucuronidation product (UGT1A1 or UGT1A4): minor glucuronidation product

Molecule: CN1CC[C@H](c2c(O[C@@H]3O[C@H](C(=O)O)[C@@H](O)[C@H](O)[C@H]3O)cc(O)c3c(=O)cc(-c4ccccc4Cl)oc23)[C@H](O)C1 [Flavo-7-G, 7-O-β-glucopyranuronosyl-flavopiridol]
- Share of glucuronidation product (UGT1A9): 98.5%
